Source: patent US10308644B2, “Heterocyclic compounds as immunomodulators” (Incyte Corporation, priority 2016, dated 2019)

Biological target: PD-1/PD-L1 (Homo sapiens (Human), UniProt Q9NZQ7)
Test: PD-1/PD-L1 Homogeneous Time-Resolved Fluorescence (HTRF) Binding Assay
Details: recombinant human PD-1 (3 nM) and PD-L1 (10 nM), 25° C., PBS pH 7.4
In short: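 Fc-tagged human PD-1 (25-167, 3 nM) and His-tagged PD-L1 (19-238, 10 nM) preincubated with inhibitor 40 min in PBS pH 7.4, 0.05% Tween-20, 0.1% BSA, 1% DMSO, 25 °C. Binding detected by HTRF (Eu anti-IgG/APC anti-His, 665/620 nm) after 60 min; IC50 from percent control activity.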

Sequence of PD-1/PD-L1 (Q9NZQ7 19-238): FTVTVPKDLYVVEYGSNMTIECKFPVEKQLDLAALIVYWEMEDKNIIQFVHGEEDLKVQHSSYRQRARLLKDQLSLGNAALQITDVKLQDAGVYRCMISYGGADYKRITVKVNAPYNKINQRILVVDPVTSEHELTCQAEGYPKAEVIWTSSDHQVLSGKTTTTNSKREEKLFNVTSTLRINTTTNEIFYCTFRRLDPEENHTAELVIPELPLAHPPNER

| SMILES | IC50 |
| --- | --- |
| Cc1c(Nc2nccc3cc(CN4CC[C@@H](C(=O)O)C4)cnc23)cccc1-c1cccc(-c2nc3cc(CN[C@@H](C)CO)cc(C#N)c3o2)c1C [Example 211, (R)-1-((8-(3′-(7-cyano-5-(((S)-1-hydroxypropan-2-ylamino)methyl)benzo[d]oxazol-2-yl)-2,2′-dimethylbiphenyl-3-ylamino)-1,7-naphthyridin-3-yl)methyl)pyrrolidine-3-carboxylic acid] | ≤ 10 nM |
| Cc1c(Nc2nccc3cc(CN4CCC(C(=O)O)CC4)cnc23)cccc1-c1cccc(-c2nc3cc(CNC[C@H](C)O)cc(C#N)c3o2)c1C [Example 212, (S)-1-((8-(3′-(7-cyano-5-((2-hydroxypropylamino)methyl)benzo[d]oxazol-2-yl)-2,2′-dimethylbiphenyl-3-ylamino)-1,7-naphthyridin-3-yl)methyl)piperidine-4-carboxylic acid] | ≤ 10 nM |
| Cc1c(Nc2nccc3cc(CN4CCC(C(=O)O)CC4)cnc23)cccc1-c1cccc(-c2nc3cc(CN[C@@H](C)CO)cc(C#N)c3o2)c1C [Example 213, (S)-1-((8-(3′-(7-cyano-5-((1-hydroxypropan-2-ylamino)methyl)benzo[d]oxazol-2-yl)-2,2′-dimethylbiphenyl-3-ylamino)1,7-naphthyridin-3-yl)methyl)piperidine-4-carboxylic acid] | ≤ 10 nM |
| Cc1c(Nc2nccc3cc(CN4CCC(C(=O)O)CC4)cnc23)cccc1-c1cccc(-c2nc3cc(CN4CC[C@@H](O)C4)cc(C#N)c3o2)c1C [Example 214, (R)-1-((8-(3′-(7-cyano-5-((3-hydroxypyrrolidin-1-yl)methyl)benzo[d]oxazol-2-yl)-2,2′-dimethylbiphenyl-3-ylamino)-1,7-naphthyridin-3-yl)methyl)piperidine-4-carboxylic acid] | ≤ 10 nM |
| Cc1c(Nc2nccc3cc(CN4CC[C@@](C)(C(=O)O)C4)cnc23)cccc1-c1cccc(-c2nc3cc(CN[C@@H](C)CO)cc(C#N)c3o2)c1C [Example 215, (R)-1-((8-(3′-(7-cyano-5-(((S)-1-hydroxypropan-2-ylamino)methyl)benzo[d]oxazol-2-yl)-2,2′-dimethylbiphenyl-3-ylamino)-1,7-naphthyridin-3-yl)methyl)-3-methylpyrrolidine-3-carboxylic acid] | ≤ 10 nM |
| Cc1c(Nc2nccc3cc(CN4CC[C@@](C)(C(=O)O)C4)cnc23)cccc1-c1cccc(-c2nc3cc(CN4CC[C@@H](O)C4)cc(C#N)c3o2)c1C [Example 216, (R)-1-((8-(3′-(7-cyano-5-(((R)-3-hydroxypyrrolidin-1-yl)methyl)benzo [d]oxazol-2-yl)-2,2′-dimethylbiphenyl-3-ylamino)-1,7-naphthyridin-3-yl)methyl)-3-methylpyrrolidine-3-carboxylic acid] | ≤ 10 nM |
| Cc1c(-c2nc3cc(CN4CC[C@@](C)(C(=O)O)C4)cc(C#N)c3o2)cccc1-c1cccc(-c2nc3c(s2)CN(C(=O)CN(C)C(C)C)C3)c1C [Example 217, (R)-1-((7-cyano-2-(3′-(5-(2-(isopropyl(methyl)amino)acetyl)-5,6-dihydro-4H-pyrrolo[3,4-d]thiazol-2-yl)-2,2′-dimethylbiphenyl-3-yl)benzo[d]oxazol-5-yl)methyl)-3-methylpyrrolidine-3-carboxylic acid] | ≤ 10 nM |
| CCN(C)CC(=O)N1Cc2nc(-c3cccc(-c4cccc(-c5nc6cc(CN7CC[C@@](C)(C(=O)O)C7)cc(C#N)c6o5)c4C)c3C)sc2C1 [Example 218, (R)-1((7-cyano-2-(3′-(5-(2-(ethyl(methyl)amino)acetyl)-5,6-dihydro-4H-pyrrolo[3,4-d]thiazol-2-yl)-2,2′-dimethylbiphenyl-3-yl)benzo[d]oxazol-5-yl)methyl)-3-methylpyrrolidine-3-carboxylic acid] | ≤ 10 nM |
| Cc1c(-c2nc3cc(CN4CC[C@@](C)(C(=O)O)C4)cc(C#N)c3o2)cccc1-c1cccc(-c2nc3c(s2)CN(C(=O)CN(C)CC2CC2)C3)c1C [Example 219, (R)-1-((7-cyano-2-(3′-(5-(2-((cyclopropylmethyl) (methyl)amino)acetyl)-5,6-dihydro-4H-pyrrolo[3,4-d]thiazol-2-yl)-2,2′-dimethylbiphenyl-3-yl)benzo[d]oxazol-5-yl)methyl)-3-methylpyrrolidine-3-carboxylic acid] | ≤ 10 nM |
| CCN(C)CC(=O)N1Cc2nc(-c3cccc(-c4cccc(-c5nc6cc(CN7CC8(C(=O)O)CC7C8)cc(C#N)c6o5)c4C)c3C)sc2C1 [Example 220, 2-((7-cyano-2-(3′-(5-(2-(ethyl(methyl)amino)acetyl)-5,6-dihydro-4H-pyrrolo[3,4-d]thiazol-2-yl)-2,2′-dimethylbiphenyl-3-yl)benzo[d]oxazol-5-yl)methyl)-2-azabicyclo[2.1.1]hexane-4-carboxylic acid] | ≤ 10 nM |
| Cc1c(-c2nc3cc(CN4CC[C@@](C)(C(=O)O)C4)cc(C#N)c3o2)cccc1-c1cccc(-c2nc3c(s2)CN(C(=O)CN2CC[C@H](O)C2)C3)c1C [Example 221, (R)-1-((7-cyano-2-(3′-(5-(2-((S)-3-hydroxypyrrolidin-1-yl)acetyl)-5,6-dihydro-4H-pyrrolo[3,4-d]thiazol-2-yl)-2,2′-dimethylbiphenyl-3-yl)benzo[d]oxazol-5-yl)methyl)-3-methylpyrrolidine-3-carboxylic acid] | ≤ 10 nM |
| Cc1c(-c2nc3cc(CN4CC[C@@](C)(C(=O)O)C4)cc(C#N)c3o2)cccc1-c1cccc(-c2nc3c(s2)CN(C(=O)CN2CC[C@@H](O)C2)C3)c1C [Example 222] | ≤ 10 nM |
| CCN1CCN(CC(=O)N2Cc3nc(-c4cccc(-c5cccc(-c6nc7cc(CN8CC[C@@](C)(C(=O)O)C8)cc(C#N)c7o6)c5C)c4C)sc3C2)CC1 [Example 223, (R)-1-((7-cyano-2-(3′-(5-(2-(4-ethylpiperazin-1-yl)acetyl)-5,6-dihydro-4H-pyrrolo[3,4-d]thiazol-2-yl)-2,2′-dimethylbiphenyl-3-yl)benzo[d]oxazol-5-yl)methyl)-3-methylpyrrolidine-3-carboxylic acid] | ≤ 10 nM |

Continued, values first:

| IC50 | SMILES |
| --- | --- |
| ≤ 10 nM | Cc1c(Nc2nccc3cc(CNC[C@@H](C)O)cnc23)cccc1-c1cccc(-c2nc3cc(CN4CCC(C(=O)O)CC4)cc(C#N)c3o2)c1C [Example 203, (R)-1-((7-cyano-2-(3′-(3-((2-hydroxypropylamino)methyl)-1,7-naphthyridin-8-ylamino)-2,2′-dimethylbiphenyl-3-yl)benzo[d]oxazol-5-yl)methyl)piperidine-4-carboxylic acid] |
| ≤ 10 nM | Cc1c(Nc2nccc3cc(CNC[C@H](C)O)cnc23)cccc1-c1cccc(-c2nc3cc(CN4CCC(C(=O)O)CC4)cc(C#N)c3o2)c1C [Example 204, (S)-1-((7-cyano-2-(3′-(3-((2-hydroxypropylamino)methyl)-1,7-naphthyridin-8-ylamino)-2,2′-dimethylbiphenyl-3-yl)benzo[d]oxazol-5-yl)methyl)piperidine-4-carboxylic acid] |
| ≤ 10 nM | Cc1c(Nc2ncnc3cc(CN4CC[C@@H](O)C4)cnc23)cccc1-c1cccc(-c2nc3cc(CN4CC[C@@](C)(C(=O)O)C4)cc(C#N)c3o2)c1C [Example 205, (R)-1-((7-cyano-2-(3′-(7-(((R)-3-hydroxypyrrolidin-1-yl)methyl)pyrido [3,2-d]pyrimidin-4-ylamino)-2,2-dimethylbiphenyl-3-yl)benzo[d]oxazol-5-yl)methyl)-3-methylpyrrolidine-3-carboxylic acid] |
| ≤ 10 nM | Cc1c(Nc2ncnc3cc(CN4CC[C@@H](O)C4)cnc23)cccc1-c1cccc(-c2nc3cc(CN4CCC[C@H](C(=O)O)C4)cc(C#N)c3o2)c1C [Example 206, (S)-1-((7-cyano-2-(3′-(7-(((R)-3-hydroxypyrrolidin-1-yl)methyl)pyrido [3,2-d]pyrimidin-4-ylamino)-2,2′-dimethylbiphenyl-3-yl)benzo[d]oxazol-5-yl)methyl)piperidine-3-carboxylic acid] |
| ≤ 10 nM | Cc1c(Nc2ncnc3cc(CN4CC[C@@H](O)C4)cnc23)cccc1-c1cccc(-c2nc3cc(CN4CCC(C(=O)O)CC4)cc(C#N)c3o2)c1C [Example 207, (R)-1-((7-cyano-2-(3′-(7-((3-hydroxypyrrolidin-1-yl)methyl)pyrido [3,2-d]pyrimidin-4-ylamino)-2,2′-dimethylbiphenyl-3-yl)benzo[d]oxazol-5-yl)methyl)piperidine-4-carboxylic acid] |
| ≤ 10 nM | Cc1c(Nc2ncnc3cc(CNC[C@H](C)O)cnc23)cccc1-c1cccc(-c2nc3cc(CN4CC[C@@](C)(C(=O)O)C4)cc(C#N)c3o2)c1C [Example 208, (R)-1-((7-cyano-2-(3′-(7-(((S)-2-hydroxypropylamino)methyl)pyrido[3,2-d]pyrimidin-4-ylamino)-2,2′-dimethylbiphenyl-3-yl)benzo[d]oxazol-5-yl)methyl)-3-methylpyrrolidine-3-carboxylic acid] |
| ≤ 10 nM | Cc1c(Nc2ncnc3cc(CN4CCCC4)cnc23)cccc1-c1cccc(-c2nc3cc(CN4CC[C@@H](C(=O)O)C4)cc(C#N)c3o2)c1C [Example 209, (R)-1-((7-cyano-2-(2,2′-dimethyl-3′-(7-(pyrrolidin-1-ylmethyl)pyrido[3,2-d]pyrimidin-4-ylamino)biphenyl-3-yl)benzo[d]oxazol-5-yl)methyl)pyrrolidine-3-carboxylic acid] |
| ≤ 10 nM | Cc1c(Nc2nccc3cc(CN4CC[C@@H](C(=O)O)C4)cnc23)cccc1-c1cccc(-c2nc3cc(CNC[C@H](C)O)cc(C#N)c3o2)c1C [Example 210, (R)-1-((8-(3′-(7-cyano-5-(((S)-2-hydroxypropylamino)methyl)benzo[d]oxazol-2-yl)-2,2′-dimethylbiphenyl-3-ylamino)-1,7-naphthyridin-3-yl)methyl)pyrrolidine-3-carboxylic acid] |
